Literature values, collected in patent publication US20050215521A1, “Modafinil combination therapy for improving sleep quality” (priority 2003, published 2005).
Counter-ions that a name gives are not always drawn.

Key:
[1] = oral
mice = settings: reference agents, scores below 40 of 60 denote behavioral depression
GABA uptake system = settings: at concentrations of 5×10^4 M
[2] = system: L-glutamate 1-carboxylase; settings: at concentrations of 10^−3 M
[3] = biological target: GABA:2-oxo-glutarate aminotransferase (Homo sapiens, UniProt P80404); settings: at concentrations of 10^−3 M
[4] = in vivo

Sequence of GABA:2-oxo-glutarate aminotransferase (P80404 29-500): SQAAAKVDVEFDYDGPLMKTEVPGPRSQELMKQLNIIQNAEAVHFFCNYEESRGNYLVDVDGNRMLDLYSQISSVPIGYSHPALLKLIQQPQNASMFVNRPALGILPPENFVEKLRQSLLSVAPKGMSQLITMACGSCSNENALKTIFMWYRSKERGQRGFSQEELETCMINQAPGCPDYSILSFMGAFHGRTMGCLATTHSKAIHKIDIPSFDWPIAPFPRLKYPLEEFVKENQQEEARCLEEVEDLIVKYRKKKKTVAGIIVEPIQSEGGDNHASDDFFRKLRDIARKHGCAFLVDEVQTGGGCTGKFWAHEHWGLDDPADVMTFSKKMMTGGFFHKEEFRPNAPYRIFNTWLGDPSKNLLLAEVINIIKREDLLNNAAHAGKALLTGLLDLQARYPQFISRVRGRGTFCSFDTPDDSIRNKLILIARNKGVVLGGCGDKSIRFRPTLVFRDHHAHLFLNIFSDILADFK

## Cc1ccc(-c2nc3ccc(C)cn3c2CC(=O)N(C)C)cc1 [zolpidem tartrate]
other
  solubility in methanol: sparingly soluble
  solubility in water: slightly soluble
Methylene chloride
  solubility in methylene chloride: practically insoluble

## Cc1ccc(-c2nc3ccc(C)cn3c2CC(=O)N(C)C)cc1 [zolpidem, N,N,6-trimethyl-2-(4-methylphenyl)-imidazo[1,2-s]pyridine-3-acetamide]
[1]
  elimination half-life (mean): 2.4 h
[1]; hypnotic action
  duration of action: up to 6 hours

## CCCC(C)(COC(N)=O)COC(N)=O [meprobamate]
mice
  ED100: 300 mg/kg

## Oc1noc2c1CCNC2 [gaboxadol, 4,5,6,7-tetrahydroisoxazolo[5,4-c]pyridin-3-ol]
GABA uptake system
  interaction with the GABA uptake system: did not interact
[2]
  interaction with L-glutamate 1-carboxylase: did not interact
[3]
  interaction with GABA:2-oxo-glutarate aminotransferase: did not interact

## CCCC(C)C1(CC)C(=O)NC(=O)NC1=O (stereo not shown) [pentobarbital]
mice
  ED100: 100 mg/kg

## CP(=O)(O)CCCN [SKF 97541, 3-aminopropyl(methyl)phosphinic acid]
Dilute aqueous base
  solubility in dilute aqueous base: readily soluble
other
  solubility in water: readily soluble

## CN1C(=O)CN=C(c2ccccc2)c2cc(Cl)ccc21 [diazepam, 7-chloro-1,3-dihydro-1-methyl-5-phenyl-2H-1,4-benzodiazepin-2-one]
mice
  ED100: 50 mg/kg

## O=C(CCCN1CCC(O)(c2ccc(Cl)cc2)CC1)c1ccc(F)cc1 [haloperidol]
mice
  ED100: 10 mg/kg

## NC(=O)C[S+]([O-])C(c1ccccc1)c1ccccc1 (stereo not shown) [Modafinil, 2-[(Diphenylmethyl)sulfinyl]-N-acetamide]
acetone
  solubility in acetone: sparingly or slightly soluble
cyclohexane
  solubility in cyclohexane: insoluble
other
  solubility in methanol: sparingly or slightly soluble
  solubility in water: insoluble

## CCC1(c2ccccc2)CCC(=O)NC1=O (stereo not shown) [glutethimide]
mice
  ED100: 300 mg/kg

## zopiclone
[4]
  absorption from the stomach: well absorbed
Plasma proteins
  binding to plasma proteins: not highly bound

## COC(=O)[C@H]1[C@H]2C[C@@H]3c4[nH]c5cc(OC)ccc5c4CCN3C[C@H]2C[C@@H](OC(=O)c2cc(OC)c(OC)c(OC)c2)[C@@H]1OC [reserpine]
mice
  ED100: 50 mg/kg
